Measured values reported in publication PMC10604565, “Modified CLEC3A-Derived Antimicrobial Peptides Lead to Enhanced Antimicrobial Activity against Drug-Resistant Bacteria” (Antibiotics, 2023).
Where two headings read alike, the source gives them in different places. Non-standard residues stand in square brackets, D forms with d. Residues, ends and D or L forms follow the SMILES beside them. No end group written: not given here.

Assays:
MRSA = type: cell-based, methicillin-resistant Staphylococcus aureus (MRSA-43300)
Protocol: (§1) Pseudomonas aeruginosa (Psae-27853), Staphylococcus aureus (ATCC-29213), and methicillin-resistant Staphylococcus aureus (MRSA-43300) were used. Bacteria were cultivated in tryptic soy broth (TSB) (Merck, Darmstadt, Germany) at 37 °C and 225rpm or on TSB–agarose plates at 37 °C.
(§2) Bacteria were grown to an OD620 of 0.5, harvested by centrifugation, and washed with tris-glucose buffer (TG buffer: 10 mM tris, 5 mM glucose; pH = 7.4) (P. aeruginosa and S. aureus) or phosphate–glucose buffer (PG buffer: 10 mM K2HPO4, 5 mM glucose; pH = 7.4) (MRSA). Bacteria were adjusted to 2 × 10^6 colony forming units (CFU)/mL and were incubated in 1:2 dilutions for 2 h at 37 °C with CLEC3A-derived and modified CLEC3A-derived peptides in TG buffer or PG buffer. The known AMP LL-37 was used as a positive control, while the CLEC3A-derived peptides ST-16 (Ctrl 1) and DK-29 (Ctrl 2) and untreated bacteria were used as negative controls. The bacteria were then plated onto TSB–agarose plates in previously determined dilutions and cultured overnight at 37 °C. The number of grown colonies was determined with the ImageJ cell counter plugin and is presented as a percentage of the number of grown colonies from the untreated control. The minimal inhibitory concentration (MIC50) was defined as the concentration of antimicrobial peptide where only 50% of bacteria survived. Used peptide concentrations are provided in Supplementary Table S1.
(§3) Statistical analysis of results was performed with Prism 9.3.1 (471) (GraphPad, San Diego, CA, USA). All tables and graphs show calculated averages and standard deviations obtained from three individual experiments. Bar charts of the MIC50 include numerical values with confidence intervals (95%) as the legend. Statistical significance was determined with a paired ANOVA test followed by a Dunnett test and multiple comparisons, comparing each peptide with the respective parent peptide HT-16, HT-47, or WRK-30 as indicated in the figure captions.

[1] = test system: NIH3T3 cells (murine fibroblasts); assay: Cytotoxicity assay (MTS); type: cell-based
Protocol: NIH3T3 cells (murine fibroblasts), obtained from Prof. Dr. Wielckens, were seeded and precultured overnight. For 24 h incubation with peptides, a density of 1 × 10^4 cells/well and for 96 h incubation with peptides a density of 5 × 10^3 cells/well was used. After preculturing, the culture medium was replaced and cells were incubated with a peptide-containing medium for 24 h and 96 h. Afterward, the peptide-containing medium was removed and cells were washed with PBS before adding CellTiter 96® AQueous One Solution (Promega, Madison, WI, USA) containing 3-(4,5-dimethylthiazol-2-yl)-5-(3-carboxymethoxyphenyl)-2-(4-sulfophenyl)-2H-tetrazolium (MTS) to the culture medium. Cells incubated with peptides for 24 h were incubated with MTS medium for 1 h at 37 °C, and absorbance was measured at 490 nm. Cells incubated with peptides for 96 h were incubated with MTS medium for 2 h at 37 °C before measuring the absorbance. Samples were measured in triplicates, and the cell viability of three individual experiments is presented as a percentage of the measured OD from the untreated control. As further controls, vancomycin (final concentration 7.35 µg/mL), colistin (final concentration 147 µg/mL), and 1% TritonX in culture medium were used. Used peptide concentrations are provided in Supplementary Table S2.

P. aeruginosa = type: cell-based, Pseudomonas aeruginosa (Psae-27853); settings: 2 h, pH 7.4
Protocol: as §1, §2, §3

[2] = Biostability assay in murine serum; type: in vitro ADME, murine (C57BL6/N); settings: 30 µM peptide, room temperature; for Time for which the peptide was detectable in murine serum: pooled murine serum (C57BL6/N), samples 5 min, 10 min, n = 3
Protocol: The peptides (HT-47, WRK-30, and dWRK-30) were mixed with pooled murine serum, obtained from C57BL6/N wildtype mice via cardiac puncture immediately after death by cervical dislocation (the procedure was approved by the local government authority LANUV under permit no. UniKöln_Anzeige§4.22.001), to a final concentration of 30 µM. In parallel, a control with water and pooled murine serum was prepared. Both mixtures were incubated at room temperature, and samples were taken at the time points indicated in Supplementary Table S3. The samples were immediately added to a Novex Tricine SDS Sample Buffer containing a NuPage Sample Reducing Agent and incubated at 85 °C for 2 min. Boiled samples were stored at 4 °C. After the collection of all time points, samples were separated into 10–20% Tricine Gels. Gels with HT-47 and WRK-30 were subsequently transferred onto PVDF membranes (0.2 µm pore size) and immunoblot analysis with 1:200 dilutions of a custom-ordered and affinity-purified rabbit anti-WRK-30 (Eurogentec, Seraing, Belgium) antibody was performed. Gels with dWRK-30 were stained with Coomassie brilliant blue.

S. aureus = type: cell-based, Staphylococcus aureus (ATCC-29213); settings: 2 h, pH 7.4
Protocol: as §1, §2, §3

[3] = test system: gram-positive and gram-negative bacteria; settings: cited from earlier work
Text: We assessed the antimicrobial activity of the modified CLEC3A-derived peptides using an antimicrobial activity assay and determined their MIC50 (Figure 2). We used the well-investigated AMP LL-37 as a positive control. As negative controls, we used ST-16 (Ex1z), which corresponds to HT-16 with an abolished positive charge, and DK-29 (Ex2), which is solely the amphipathic α-helix of HT-47 without the positive charge of the N-terminus. […] First, we investigated the antimicrobial activity of the peptides modified from HT-16: RK-9 and ...

[4] = test system: primary human cartilage cells; settings: cited from earlier work
[5] = HT-47: immunoblot (anti-WRK-30), 6 h, 8 h, dWRK-30: SDS-PAGE, Coomassie, 24 h, 96 h

Molecule	MRSA MIC50 (MRSA; 2 h, pH 7.4)	P. aeruginosa MIC50 (P. aeruginosa)	S. aureus MIC50 (S. aureus)	also measured
CC[C@H](C)[C@H](NC(=O)[C@H](CCCCN)NC(=O)[C@H](CCC(=O)O)NC(=O)[C@H](CCCCN)NC(=O)[C@H](CO)NC(=O)[C@H](CCCCN)NC(=O)[C@H](CCCNC(=N)N)NC(=O)[C@H](Cc1ccccc1)NC(=O)[C@H](Cc1ccccc1)NC(=O)[C@H](CC(=O)O)NC(=O)CNC(=O)[C@H](CC(C)C)NC(=O)[C@@H](N)CC(C)C)C(=O)NCC(=O)N[C@@H](CCCCN)C(=O)N[C@@H](CCC(=O)O)C(=O)N[C@@H](Cc1ccccc1)C(=O)N[C@@H](CCCCN)C(=O)N[C@@H](CCCNC(=N)N)C(=O)N[C@H](C(=O)N[C@H](C(=O)N[C@@H](CCC(N)=O)C(=O)N[C@@H](CCCNC(=N)N)C(=O)N[C@H](C(=O)N[C@@H](CCCCN)C(=O)N[C@@H](CC(=O)O)C(=O)N[C@@H](Cc1ccccc1)C(=O)N[C@@H](CC(C)C)C(=O)N[C@@H](CCCNC(=N)N)C(=O)N[C@@H](CC(N)=O)C(=O)N[C@@H](CC(C)C)C(=O)N[C@H](C(=O)N1CCC[C@H]1C(=O)N[C@@H](CCCNC(=N)N)C(=O)N[C@H](C(=O)N[C@@H](CCC(=O)O)C(=O)N[C@@H](CO)C(=O)O)[C@@H](C)O)C(C)C)[C@@H](C)CC)C(C)C)[C@@H](C)CC [LL-37, reference compound]				MRSA MIC50 (MRSA; Figure 2c series, 2 × 10^6 CFU/mL, 2 h at 37 °C in PG buffer pH 7.4, plating and colony count, n = 3, ± confidence interval (95%), na: not applicable): 2.40 ± 0.42 µM; MRSA MIC50 (MRSA; Figure 3c series, 2 × 10^6 CFU/mL, 2 h at 37 °C in PG buffer pH 7.4, n = 3, ± confidence interval (95%), na: not applicable): 2.63 ± 1.21 µM; MRSA MIC50 (MRSA; Figure 8c series, 2 × 10^6 CFU/mL, 2 h at 37 °C in PG buffer pH 7.4, n = 3, ± confidence interval (95%)): 0.52 ± 0.64 µM; Cytotoxicity to NIH3T3 cells, 24 h (in words) ([1]; Figure 5A, 0.3, 3 and 30 µM peptide, 24 h, MTS, absorbance 490 nm, % of untreated control, n = 3): cytotoxic effects
CC[C@@H](C)[C@@H](NC(=O)[C@@H](CCC(=O)O)NC(=O)[C@@H](CCCCN)NC(=O)[C@@H](CC(C)C)NC(=O)[C@@H](C)NC(=O)[C@@H](CC(N)=O)NC(=O)[C@H](NC(=O)[C@@H](CCC(=O)O)NC(=O)[C@H](NC(=O)[C@@H](Cc1c[nH]c2ccccc12)NC(=O)[C@@H](CC(C)C)NC(=O)[C@@H](CCCCN)NC(=O)[C@@H](CCC(=O)O)NC(=O)[C@H](NC(=O)[C@@H](CCC(N)=O)NC(=O)[C@H](NC(=O)[C@@H](CCCCN)NC(=O)[C@@H](CC(C)C)NC(=O)CNC(=O)CNC(=O)CNC(=O)[C@@H](CCCNC(=N)N)NC(=O)[C@H](NC(=O)[C@@H](CCCNC(=N)N)NC(=O)[C@@H](CCCNC(=N)N)NC(=O)[C@@H](CCCCN)NC(=O)[C@@H](CO)NC(=O)[C@@H](Cc1c[nH]cn1)NC(=O)[C@@H](CCCCN)NC(=O)[C@@H](CCCNC(=N)N)NC(=O)[C@H](N)Cc1c[nH]c2ccccc12)C(C)C)[C@H](C)O)[C@H](C)CC)[C@H](C)O)C(C)C)C(=O)O [dWRK-30] (H-[dW][dR][dK][dH][dS][dK][dR][dR][dV][dR]GGG[dL][dK][dT][dQ][dI][dE][dK][dL][dW][dT][dE][dV][dN][dA][dL][dK][dE][dI]-OH)	2.34 ± 0.39 µM	1.46 ± 1.55 µM	0.66 ± 0.36 µM	Time for which the peptide was detectable in murine serum [2, 5]: up to 96 h
DKDGDLKTQIEKLWTEVNALKEIQALQTVCL [DK-29, negative control, solely the amphipathic α-helix of HT-47 without the positive charge of the N-terminus]				Antimicrobial activity of negative control peptides (in words) [3]: Neither ST-16 nor DK-29 display any antimicrobial activity
HTSRLKARKHSKRRVR [HT-16]	9.25 ± 6.25 µM	0.51 ± 0.11 µM	0.24 ± 0.13 µM	Toxic effects to primary human cartilage cells [4]: no toxic effects; Cytotoxicity towards murine fibroblasts, overall statement [1]: does not show any signs of cytotoxicity
HTSRLKARKHSKRRVRDKDGDLKTQIEKLWTEVNALKEIQALQTVCL [HT-47]	9.88 ± 2.43 µM			Toxic effects to primary human cartilage cells [4]: no toxic effects; Time for which the peptide was detectable in murine serum [2, 5]: up to 8 h; Detection in murine serum after 24 h (in words) ([2]; pooled murine serum, immunoblot, 24 h (not shown)): disappeared
RKHSKRRVR [RK-9]		4.17 ± 0.69 µM	1.62 ± 2.67 µM	
RKHSKRRVRDKDGDLKTQIEKLWTEVNALKEI [RK-31]			4.85 ± 3.10 µM	
RKHSKRRVRGGGLKTQIEKLWTEVNALKEI [RK-30]	4.51 ± 3.81 µM	2.64 ± 1.79 µM	0.63 ± 0.68 µM	
STSQLQAQQSSQQQVQ [ST-16, negative control, corresponds to HT-16 with abolished positive charge]				Antimicrobial activity of negative control peptides (in words) [3]: Neither ST-16 nor DK-29 display any antimicrobial activity
WRKHSKRRVR [WRK-9]		0.96 ± 0.46 µM	0.56 ± 0.72 µM	
WRKHSKRRVRDKDGDLKTQIEKLWTEVNALKEI [WRK-31]			1.03 ± 0.30 µM	
WRKHSKRRVRGGGLKTQIEKLWTEVNALKEI [WRK-30]				Time for which the peptide was detectable in murine serum ([2]; immunoblot (anti-WRK-30), 30 min, 1 h): up to 30 min
